In EP4748840A1, “IMIDAZO[1,2-A]PYRIDINE TYPE IRAK DEGRADATION AGENT AND USE THEREOF” (TAINUORUI (TIANJIN) BIOTECHNOLOGY CO., LTD, priority 2023, dated 2025):

What was measured:
[1] = Liver microsomal stability assay (monkey); assay type: in vitro ADME; conditions: Monkey liver microsomes 0.5 mg/mL, NADPH and UDPGA, 1 µM compound
Experimental: (§1) Liver microsomal stability assay
(§2) Microsomes were stored in a -80°C refrigerator, thawed in a 37°C water bath before use, and placed on ice after thawing. All other reagents were purchased from local suppliers.
(§3) In step 1, a reaction system was configured as follows:
(§4) In step 2, 40 µL of 10 mM NADPH solution and 40 µL of 20 mM UDPGA solution were added to the above reaction system, where the final concentrations of NADPH and UDPGA were 1 mM and 2 mM, respectively. 80 µL of ultrapure water was used as negative control to replace the NADPH and UDPGA solutions. The reaction system was pre-incubated for 10 min in a 37°C water bath. […]
(§5) All data calculations were performed using Microsoft Excel software. Peak areas were determined from extracted ion chromatograms and used for calculating the remaining percentage at each time point.
(§6) The remaining percentage was calculated by the following formula: remaining percentage (%) = (peakarearatiotime point/peakarearatio0 min) × 100. […]
(§7) An elimination rate constant (k) was determined through linear fitting of a natural logarithm of the remaining percentage of a parent drug versus time.
(§8) The half-life t1/2 was calculated from the elimination rate constant: t1/2 = 0.693/k.
(§9) The in vitro intrinsic clearance (µL/min/mg) was calculated by the following formula: invitroCLint = kV/N. [formula] […]

[2] = Liver microsomal stability assay (mouse); assay type: in vitro ADME; conditions: Mouse liver microsomes 0.5 mg/mL, NADPH and UDPGA, 1 µM compound
Experimental: as §1, §2, §3, §4, §5, §6, §7, §8, §9

[3] = Liver microsomal stability assay (human); assay type: in vitro ADME; conditions: Human liver microsomes 0.5 mg/mL, NADPH and UDPGA, 1 µM compound
Experimental: as §1, §2, §3, §4, §5, §6, §7, §8, §9

[4] = In vivo pharmacokinetic study in mice; conditions: male CD1 mice
Experimental: In vivo pharmacokinetic study
The pharmacokinetic behaviors of Example 1 and Example 15 in mice were studied using the following experimental protocol to evaluate their pharmacokinetic characteristics.
The mice had free access to food and water before the test.
(§10) Approximately 0.03 mL of venous blood was collected from the dorsal metatarsal vein of each mouse separately after 0.033 h, 0.083 h, 0.25 h, 0.5 h, 1 h, 2 h, 4 h, 8 h, and 24 h since intravenous injection. The blood was placed in an EDTA-K2 tube and centrifuged for 5 min at 4000 g and 4°C. The plasma was separated. The concentration of the compound in the plasma was determined through liquid chromatography-tandem mass spectrometry.
as §10, with “after” for “after 0.033 h,”, “oral administration.” for “intravenous injection.”

[5] = Liver microsomal stability assay (dog); assay type: in vitro ADME; conditions: Dog liver microsomes 0.5 mg/mL, NADPH and UDPGA, 1 µM compound
Experimental: as §1, §2, §3, §4, §5, §6, §7, §8, §9

[6] = Liver microsomal stability assay (rat); assay type: in vitro ADME; conditions: Rat liver microsomes 0.5 mg/mL, NADPH and UDPGA, 1 µM compound
Experimental: as §1, §2, §3, §4, §5, §6, §7, §8, §9

IRAK4 = target: T1, IRAK4 (Homo sapiens, UniProt Q9NWZ3); test: HiBiT-based intracellular degradation assay of THP1-HIBiT-IRAK4 cells; assay type: cell-based; conditions: half-maximal degradation concentration of IRAK4 protein, 24 h incubation
T1 construct: expressed in transfected cells; host or cells: THP1 (THP1-HIBiT-IRAK4 engineered line)
T1 sequence (Q9NWZ3 1-460): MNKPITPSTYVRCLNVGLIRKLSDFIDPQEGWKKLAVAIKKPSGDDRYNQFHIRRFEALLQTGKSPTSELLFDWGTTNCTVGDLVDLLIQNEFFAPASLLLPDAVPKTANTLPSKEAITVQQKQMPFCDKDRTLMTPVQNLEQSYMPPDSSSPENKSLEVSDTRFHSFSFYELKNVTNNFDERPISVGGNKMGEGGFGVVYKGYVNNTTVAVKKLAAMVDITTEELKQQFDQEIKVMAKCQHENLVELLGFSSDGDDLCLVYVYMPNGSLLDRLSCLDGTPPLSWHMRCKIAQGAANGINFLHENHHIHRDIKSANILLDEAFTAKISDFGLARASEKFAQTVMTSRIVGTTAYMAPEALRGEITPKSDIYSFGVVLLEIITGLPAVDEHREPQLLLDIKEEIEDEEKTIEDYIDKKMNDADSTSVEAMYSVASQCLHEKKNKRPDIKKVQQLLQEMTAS
Experimental: HiBiT-based intracellular degradation assay of THP1-HIBiT-IRAK4 cells
THP1-HIBiT-IRAK4 cells were cultured in RPMI 1640 medium supplemented with 10% fetal bovine serum (FBS) and 1% penicillin-streptomycin (PS) (37°C and 5% CO2). The THP1-HIBiT-IRAK4 cells were inoculated in a 384-well plate at 5000 cells/40 µL/well. Compound solutions with different concentrations were added at 40 nL/well and incubated for 24 h at 37°C in 5% CO2. HiBiT lysis detection reagents were added to the wells, the plate was incubated for 30 min at room temperature, and luminescence values were read on Envision. [formula]
The DC50 (half-maximal degradation concentration) of each compound was obtained using XLfit software and the following nonlinear fitting equation: Y = bottom + (top−bottom)/(1+10^(∧)((LogDC50−X)×Hillslope)). [formula]
X denotes a log value of the compound concentration.
Y denotes the degradation rate.
Table 1 lists the results of DC50 values of IRAK4 protein degradation. […]

[7] = mouse, plasma, Intravenous Injection (2 mg/kg)

CC(C)(O)c1cc2nc(C3CCN(CC4CCN(c5cc6c(cc5F)C(=O)N(C5CCC(=O)NC5=O)C6=O)CC4)CC3)cn2cc1NC(=O)c1cccc(C(F)(F)F)n1 (centres unmarked) [Example 15, N-(2-(1-((1-(2-(2,6-dioxopiperidin-3-yl)-6-fluoro-1,3-dioxoisoindolin-5-yl)piperidin-4-yl)methyl)piperidin-4-yl)-7-(2-hydroxypropan-2-yl)imidazo[1,2-a]pyridin-6-yl)-6-(trifluoromethyl)pyridine-2-carboxamide]
half-life at 1 µM [1]: 3.2 h | microsomal CLint at 1 µM [1]: 7.22 µL/min/mg | half-life at 1 µM [2]: 2.39 h | microsomal CLint at 1 µM [2]: 9.67 µL/min/mg | half-life at 1 µM [3]: 6.68 h | microsomal CLint at 1 µM [3]: 3.46 µL/min/mg | F ([4]; oral bioavailability, Oral Administration (20 mg/kg) vs Intravenous Injection (2 mg/kg)): 61.7% | clearance [4, 7]: 37.2 mL/min/kg | half-life [4, 7]: 8.05 h | half-life ([4]; mouse, plasma, Oral Administration (20 mg/kg)): 8.01 h | AUC(0-t) ([4]; mouse, Intravenous Injection (2 mg/kg), plasma): 870 ng·h/mL | AUC(0-t) ([4]; mouse, Oral Administration (20 mg/kg), plasma): 4760 ng·h/mL | half-life at 1 µM [5]: 4.33 h | microsomal CLint at 1 µM [5]: 5.34 µL/min/mg | half-life at 1 µM [6]: 2.23 h | microsomal CLint at 1 µM [6]: 10.4 µL/min/mg | DC50 (IRAK4): 1.62 nM
